Assay results: patent US8691805B2, “Azetidinyl diamides as monoacylglycerol lipase inhibitors” (Janssen Pharmaceutica NV, priority 2009, dated 2014)

Columns and labels:
[1] = biological target: T1, MGL in rat brain homogenate (Rattus norvegicus, UniProt Q8R431); test: 2-AG accumulation assay in rat brain homogenate; format: biochemical; details: 2-AG accumulation as percent of vehicle; for Rat Brain 2AG % VehCntrl (%) @10 μM: compound 10 μM
T1 construct: one g rat brain was homogenized; from tissue; host or cells: rat brain homogenate
T1 sequence (Q8R431 1-303): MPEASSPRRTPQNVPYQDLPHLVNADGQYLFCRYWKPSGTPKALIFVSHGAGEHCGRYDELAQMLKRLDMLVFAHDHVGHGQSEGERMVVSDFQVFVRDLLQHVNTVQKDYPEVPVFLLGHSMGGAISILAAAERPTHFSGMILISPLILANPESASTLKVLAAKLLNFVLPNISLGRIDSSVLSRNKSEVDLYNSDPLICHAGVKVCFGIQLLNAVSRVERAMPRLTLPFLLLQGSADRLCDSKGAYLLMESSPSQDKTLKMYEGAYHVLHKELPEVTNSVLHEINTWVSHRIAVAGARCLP

[2] = biological target: T2, mutant MGL (Homo sapiens, UniProt Q99685, L169S/L176S); test: MGL ThermoFluor assay - mutant; details: read-out: MGL mutant ThermoFluor Kd, ThermoFluor thermal shift
T2 sequence (Q99685 1-303 L169S/L176S): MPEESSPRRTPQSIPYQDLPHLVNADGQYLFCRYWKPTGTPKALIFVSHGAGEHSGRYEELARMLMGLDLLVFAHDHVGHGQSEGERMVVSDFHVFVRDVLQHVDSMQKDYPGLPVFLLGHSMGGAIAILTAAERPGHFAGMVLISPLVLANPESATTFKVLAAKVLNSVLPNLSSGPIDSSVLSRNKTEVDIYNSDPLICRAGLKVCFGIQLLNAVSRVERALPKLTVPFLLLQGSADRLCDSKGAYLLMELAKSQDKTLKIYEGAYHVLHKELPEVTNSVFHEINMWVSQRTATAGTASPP
Description: The ThermoFluor (TF) assay is a 384-well plate-based binding assay that measures thermal stability of proteins^1,2. […] TF dye used in all experiments was 1,8-ANS (Invitrogen: A-47). Final TF assay conditions used for MGL studies were 0.07 mg/ml of mutant MGL, 100 μM ANS, 200 mM NaCl, 0.001% Tween-20 in 50 mM PIPES (pH=7.0).
Screening compound plates contained 100% DMSO compound solutions at a single concentration. […] Columns 12 and 24 were used as DMSO reference and contained no compound. […] Following compound dispension, protein and dye solutions were added to achieve the final assay volume of 3 μL.
Bar-coded assay plates were robotically loaded onto a thermostatically controlled PCR-type thermal block and then heated from 40 to 90° C. degrees at a ramp-rate of 1° C./min for all experiments. Fluorescence was measured by continuous illumination with UV light (Hamamatsu LC6), supplied via fiber optics and filtered through a band-pass filter (380-400 nm; >6 OD cutoff). Fluorescence emission of the entire 384-well plate was detected by measuring light intensity using a CCD camera (Sensys, Roper Scientific) filtered to detect 500±25 nm, resulting in simultaneous and independent readings of all 384 wells. […]

[3] = system: CFA-induced paw radiant heat hypersensitivity in rats; test: CFA-induced paw radiant heat hypersensitivity; format: in vivo; details: rat, 30 mg/kg p.o., HPβCD, group mean values, last time point 180 or 300 min
Description: Each rat was placed in a test chamber on a warm glass surface and allowed to acclimate for approximately 10 min. A radiant thermal stimulus (beam of light) was then focused through the glass onto the plantar surface of each hind paw in turn. The thermal stimulus was automatically shut off by a photoelectric relay when the paw was moved or when the cut-off time was reached (20 sec for radiant heat at ˜5 amps). An initial (baseline) response latency to the thermal stimulus was recorded for each animal prior to the injection of complete Freund's adjuvant (CFA). 24 h following intraplantar CFA injection, the response latency of the animal to the thermal stimulus was then re-evaluated and compared to the animal's baseline response time. […] Post-compound treatment withdrawal latencies were assessed at fixed time intervals, typically 30, 60, 120, 180, and 300 min.
The percent reversal (% R) of hypersensitivity was calculated in one of two different ways: 1) using group mean values or 2) using individual animal values. […]
Method 1. For all compounds, the % R of hypersensitivity was calculated using the mean value for groups of animals at each time point according to the following formula: % reversal=[(group treatment response−group CFA response)/(group baseline response−group CFA response)]×100 Results are given for the maximum % reversal observed for each compound at any time point tested. […]

[4] = system: murine model of acute inflammation; details: Comelli et al. 2007; cited from earlier work

Row | SMILES | Rat Brain 2AG % VehCntrl (%) @10 μM [1] | Method 1: peak % reversal [3] | also measured
1 | O=C(c1nccs1)N1CCN(C2CN(C(=O)[C@@H]3C[C@H]3c3ccccc3Cl)C2)CC1 (racemic) [Cpd 642] | – | – | Rat Brain 2AG % VehCntrl (%) @1 μM ([1]; compound 1 μM): 170%; Kd [2]: 499 nM
2 | O=C(c1ccc(-c2ccc(O)cc2)cc1)N1CC(N2CCN(C(=O)c3nccs3)CC2)C1 [Cpd 211, 4′-({3-[(1,3-Thiazol-2-ylcarbonyl)piperazin-1-yl]azetidin-1-yl}carbonyl)biphenyl-4-ol] | 725% | – | –
3 | COc1ccc(-c2ccc(C(=O)N3CC(N4CCN(C(=O)c5nccs5)CC4)C3)cc2)cc1C=O [Cpd 216, 4-Methoxy-4′-({3-[(1,3-thiazol-2-ylcarbonyl)piperazin-1-yl]azetidin-1-yl}carbonyl)biphenyl-3-carbaldehyde] | 625% | – | –
4 | O=C(c1ccc(-c2cccc(C(F)(F)F)c2)c(Cl)c1)N1CC(N2CCN(C(=O)c3cscn3)CC2)C1 [Cpd 1102] | – | 38% | –
5 | O=C(c1ccc2c(ccn2-c2ccc(C(F)(F)F)cc2)c1)N1CC(N2CCN(C(=O)c3cscn3)CC2)C1 [Cpd 1359, 5-({3-[4-(1,3-Thiazol-4-ylcarbonyl)piperazin-1-yl]azetidin-1-yl}carbonyl)-1-[4-(trifruoromethyl)phenyl]-1 H-indole] | – | 5.1% | –
6 | O=C(Nc1cccc(-c2ccccc2)c1)OC1CCCCC1 [URB602] | – | – | antinociceptive effect [4]: showed an antinociceptive effect
